Key:
[1] = target: T1, Recombinant Human CD39/ENTPD1 Protein (Homo sapiens, UniProt P49961); experiment: CD39 activity with varying substrate concentration (phosphate release, Malachite Green), fitted to substrate inhibition model; type: biochemical; details: for Vmax: 0.02 µg/ml enzyme, 5 mM CaCl2, 30 min, room temperature; for kcat: Vmax divided by CD39 concentration; for substrate inhibition at high substrate concentrations: result in words
T1 construct: purchased R&D System (Biotechne) 4397-EN-010
T1 sequence (P49961 38-478 limits assumed): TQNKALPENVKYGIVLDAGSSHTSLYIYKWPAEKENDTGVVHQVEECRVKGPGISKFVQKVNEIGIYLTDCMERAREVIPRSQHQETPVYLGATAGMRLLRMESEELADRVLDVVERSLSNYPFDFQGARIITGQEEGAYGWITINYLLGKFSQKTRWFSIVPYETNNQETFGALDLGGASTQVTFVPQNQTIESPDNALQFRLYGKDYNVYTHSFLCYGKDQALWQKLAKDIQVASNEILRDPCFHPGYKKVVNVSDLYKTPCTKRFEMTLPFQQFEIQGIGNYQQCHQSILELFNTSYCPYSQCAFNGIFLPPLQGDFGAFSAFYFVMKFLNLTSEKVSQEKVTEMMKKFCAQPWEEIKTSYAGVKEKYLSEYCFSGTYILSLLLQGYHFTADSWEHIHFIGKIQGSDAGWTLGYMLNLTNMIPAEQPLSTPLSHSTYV

[2] = target: T1, Recombinant Human CD39/ENTPD1 Protein; design: method as in PMID 23425137; details: result in words; cited from earlier work
[3] = target: T1, Recombinant Human CD39/ENTPD1 Protein; experiment: Inhibition of CD39 activity by reaction products (nucleoside monophosphates), Malachite Green phosphate assay; type: biochemical
[4] = compound as substrate, Haldane substrate inhibition model
[5] = substrate inhibition constant, compound as substrate, Haldane substrate inhibition model

With CSc1nc(N)c2ncn([C@@H]3O[C@H](COP(=O)(O)OP(=O)(O)O)[C@@H](O)[C@H]3O)c2n1 [2-MeS-ADP, 2-methylthio-ADP] as the compound, how does the Km [1, 4] read?
The Km was 9.36 µM.

And the Vmax [1, 4]?
The Vmax was 0.021 nmol/min.

And the kcat ([1]; compound as substrate)?
Its kcat is 17.8 s⁻¹.

What about the “substrate inhibition at high substrate concentrations” value (shortened to “substrate inhibition”) ([1]; compound as substrate) of the same compound?
Its value is “no substrate inhibition”.

Which Km [1, 4] does the source give for CSc1nc(N)c2ncn([C@@H]3O[C@H](COP(=O)(O)OP(=O)(O)OP(=O)(O)O)[C@@H](O)[C@H]3O)c2n1 [2-MeS-ATP] here?
The Km was 5.37 µM.

And the Vmax [1, 4]?
Its Vmax is 0.018 nmol/min.

What about the kcat ([1]; compound as substrate) of the same compound?
The kcat was 15.3 s⁻¹.

What about the Ki [1, 5] of the same compound?
Its Ki is 1820 µM.

Which “hydrolysis by CD39” value [2] does the source give for CCCCSc1nc2c(N)ncnc2n1[C@@H]1O[C@H](COP(=O)(O)OP(=O)(O)O)[C@@H](O)[C@H]1O [8-BuS-ADP] here?
Its value is “resistant to hydrolysis by CD39”.

Which “hydrolysis by CD39” value [2] does the source give for CCCCSc1nc2c(N)ncnc2n1C1OC(COP(=O)(O)OP(=O)(O)OP(=O)(O)O)C(O)C1O (centres unmarked) [8-butylthio (BuS)-ATP] here?
The value was “resistant to hydrolysis by CD39”.

For Nc1ncnc2c1ncn2[C@@H]1O[C@H](COP(=O)(O)OP(=O)(O)O)[C@@H](O)[C@H]1O [ADP], which Km [1, 4] is on record?
Its Km is 5.71 µM.

What about the Vmax [1, 4] of the same compound?
Its Vmax is 0.021 nmol/min.

And the kcat ([1]; compound as substrate)?
The kcat was 17.8 s⁻¹.

And the Ki [1, 5]?
Its Ki is 358 µM.

With Nc1ncnc2c1ncn2[C@@H]1O[C@H](COP(=O)(O)OP(=O)(O)OP(=O)(O)O)[C@@H](O)[C@H]1O [ATP] as the compound, how does the Km [1, 4] read?
The Km was 4.01 µM.

And the Vmax [1, 4]?
The Vmax was 0.020 nmol/min.

What about the kcat ([1]; compound as substrate) of the same compound?
The kcat was 17.0 s⁻¹.

And the Ki [1, 5]?
Its Ki is 818 µM.

With Nc1nc2c(ncn2[C@@H]2O[C@H](COP(=O)(O)OP(=O)(O)O)[C@@H](O)[C@H]2O)c(=O)[nH]1 [GDP] as the compound, how does the Km [1, 4] read?
The Km was 26.6 µM.

What about the Vmax [1, 4] of the same compound?
The Vmax was 0.022 nmol/min.

What about the kcat ([1]; compound as substrate) of the same compound?
The kcat was 18.7 s⁻¹.

And the Ki ([1]; substrate inhibition constant as stated in text)?
The Ki was over 1000 µM.

Which IC50 ([3]; 24 μM GTP as substrate) does the source give for Nc1nc2c(ncn2[C@@H]2O[C@H](COP(=O)(O)O)[C@@H](O)[C@H]2O)c(=O)[nH]1 [GMP] here?
The IC50 was about 350 µM.

For Nc1nc2c(ncn2[C@@H]2O[C@H](COP(=O)(O)OP(=O)(O)OP(=O)(O)O)[C@@H](O)[C@H]2O)c(=O)[nH]1 [GTP], which Km [1, 4] is on record?
The Km was 20.6 µM.

And the Vmax [1, 4]?
The Vmax was 0.021 nmol/min.

What about the kcat ([1]; compound as substrate) of the same compound?
The kcat was 17.8 s⁻¹.

And the “substrate inhibition” value ([1]; compound as substrate)?
Its value is “Substrate inhibition was seen”.

What about the Ki [1, 5] of the same compound?
Its Ki is 680 µM.

For O=c1ccn([C@@H]2O[C@H](COP(=O)(O)OP(=O)(O)O)[C@@H](O)[C@H]2O)c(=O)[nH]1 [UDP], which Km [1, 4] is on record?
Its Km is 13.3 µM.

What about the Vmax [1, 4] of the same compound?
Its Vmax is 0.025 nmol/min.

And the kcat ([1]; compound as substrate)?
Its kcat is 21.2 s⁻¹.

And the “substrate inhibition” value ([1]; compound as substrate)?
The value was “almost no substrate inhibition”.

With O=c1ccn([C@@H]2O[C@H](COP(=O)(O)O)[C@@H](O)[C@H]2O)c(=O)[nH]1 [UMP] as the compound, how does the IC50 ([3]; 24 μM UTP as substrate) read?
Its IC50 is about 165 µM.

Which Km [1, 4] does the source give for O=c1ccn([C@@H]2O[C@H](COP(=O)(O)OP(=O)(O)OP(=O)(O)O)[C@@H](O)[C@H]2O)c(=O)[nH]1 [UTP] here?
The Km was 9.38 µM.

What about the Vmax [1, 4] of the same compound?
The Vmax was 0.024 nmol/min.

And the kcat ([1]; compound as substrate)?
Its kcat is 20.4 s⁻¹.

What about the “substrate inhibition” value ([1]; compound as substrate) of the same compound?
The value was “weak substrate inhibition”.

And the Ki [1, 5]?
The Ki was 1960 µM.
